Measured values published in US20250339514A1, “SINGLE-AND MULTI-EPITOPE PEPTIDE AND MRNA VACCINES TO GENERATE TOLEROGENIC EFFECTS FOR ALLERGIC AND AUTOIMMUNE DISEASE BY TARGETING LIVER SINUSOIDAL ENDOTHELIAL CELLS” (The Regents of the University of California, priority 2022, published 2025).
Read-outs that look alike come from different tables or passages of the source.

How the values were obtained:
[1] = Cargo loading and ApoBP ligand content by microBCA / BCA assay; format: physicochemical
Protocol: The relative abundance of mannan incorporation was assessed by calculating the difference between the total amount offered for conjugation versus the amount recovered in the supernatant. […] The abundance of peptide conjugation was assessed by a microBCA assay and a nanodrop method.
The purified NPs were fully characterized using dynamic light scattering to determine particle size and surface charge, and scanning electron microscopy was performed to visualize particle morphology. The microBCA assay was used to detect OVA loading capacity and the conjugation efficiency of the peptide ligand, whereas the phenol-sulfuric acid method was used to determine mannan concentration. The endotoxin level was verified by a chromogenic LAL assay.
Particles were separated and washed by centrifugation (15,000 g, 10 min). Hydrodynamic size and surface potential were measured using dynamic light scattering (DLS), with visualization of the particle size and morphology by scanning electron microscopy (SEM). […] In addition to loading of T-cell epitopes, we also selected an IgE binding peptide for encapsulation, in addition to the synthesis of nanoparticles that incorporate CPPE as well as a purified Ara h2 protein (Indoor Biotechnologies). The CPPE was prepared as described in the Online Repository section. Allergen loading capacity, including for CPPE, purified Ara h2 and its epitopes, as well as the conjugation efficacy of the ApoB ligand was determined by bicinchoninic acid assay (BCA assay).

[2] = ionizable lipid; cited from earlier work
factor VII = conditions: cited from earlier work
human T-cell lines = conditions: T-cell lines isolated from 10 different donors; cited from earlier work
C57BL/6J mice = conditions: inhalation of low peptide concentrations, naïve C57BL/6J mice; cited from earlier work
lupus-prone mice = conditions: subcutaneous every 2 weeks; cited from earlier work
I-Ek = conditions: cited from earlier work; for SYFPEITHI score: I-Ek; for Score (antigenic score predicted): MHC II H2-E^k
T cell responses = test system: T cell responses; set-up: Immunopositivity of predicted CTL epitope / Immunopositivity of MHC II peptide: scale not given here; conditions: cited from earlier work; for Immunopositivity of predicted CTL epitope: class I MHC peptides, Table 59; for Immunopositivity of MHC II peptide: MHC II peptides, Table 60
[3] = test system: class I MHC K, D, and L loci; conditions: cited from earlier work; for predicted binding to the H2-Ld locus: SYFPEITHI and BIMAS
H2-A^k = H2-A^k (Mus musculus, UniProt P01910+P06343); conditions: MHC II H2-A^k; cited from earlier work
Chain of H2-A^k (P01910 24-256): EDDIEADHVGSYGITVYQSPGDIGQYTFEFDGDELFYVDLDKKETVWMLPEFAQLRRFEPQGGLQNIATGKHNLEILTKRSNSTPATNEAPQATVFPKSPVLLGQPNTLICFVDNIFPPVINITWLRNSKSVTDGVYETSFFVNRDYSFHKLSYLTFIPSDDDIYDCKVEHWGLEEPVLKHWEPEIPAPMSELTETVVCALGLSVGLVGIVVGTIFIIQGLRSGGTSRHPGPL
Chain of H2-A^k (P06343 28-263): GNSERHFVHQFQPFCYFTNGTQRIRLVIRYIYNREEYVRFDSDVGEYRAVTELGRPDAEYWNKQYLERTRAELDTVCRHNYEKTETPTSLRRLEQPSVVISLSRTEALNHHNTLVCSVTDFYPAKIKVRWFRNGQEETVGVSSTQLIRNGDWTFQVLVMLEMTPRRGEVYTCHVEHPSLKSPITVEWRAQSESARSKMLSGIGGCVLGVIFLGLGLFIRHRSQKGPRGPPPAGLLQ

[4] = peptide in PLGA nanoparticles, Table 66
[5] = H2 locus K, haplotype d (9-mer)
[6] = H2 locus K, haplotype k (9-mer)
[7] = H2 locus D, haplotype b (9-mer)

1 (LALFLLAAHASARQQ; listed as Arachis hypogaea) [compound 1]
Loading Capacity ([1]; epitope in PLGA NPs, Table 68): 1.62 + 2.11 μg/mg

1,2-dioleoyl-3-dimethylaminopropane [DODAP]
pKa [2]: 6.6

2 (LRNLPQQCGLRAPQR; listed as Arachis hypogaea) [compound 2]
Loading Capacity ([1]; epitope in PLGA NPs, Table 68): 3.22 ± 1.96 µg/mg

3 (MAKLTILVALALFLL; listed as Arachis hypogaea) [compound 3]
Loading Capacity ([1]; epitope in PLGA NPs, Table 68): 1.31 + 1.72 μg/mg

4 (SYGRDPYSPSQDPYS; listed as Arachis hypogaea) [compound 4]
Loading Capacity ([1]; epitope in PLGA NPs, Table 68): 8.68 ± 2.04 µg/mg

CCCCC/C=C\C/C=C\CCCCCCCCC1(CCCCCCCC/C=C\C/C=C\CCCCC)OCC(CN(C)C)O1 (stereo not drawn) [DLin-K-DMA, 2,2-dilinoleyl-4-dimethylaminomethyl-[1,3]-dioxolane]
potency on the in vivo silencing of factor VII (factor VII; higher than the other tested lipids): 2.5 fold

CCCCC/C=C\C/C=C\CCCCCCCCC1(CCCCCCCC/C=C\C/C=C\CCCCC)OCC(CCN(C)C)O1 (stereo not drawn) [DLin-KC2-DMA, 2,2-dilinoleyl-4-(2-dimethylaminoethyl)-[1,3]-dioxolane]
activity (factor VII; higher activity over DLin-K-DMA): 4 fold

CCCCC/C=C\C/C=C\CCCCCCCCC(CCCCCCCC/C=C\C/C=C\CCCCC)OC(=O)CCCN(C)C [DLin-MC3-DMA, (6Z,9Z,28Z,31Z)-heptatriaconta-6,9,28,31-tetraen-19-yl-4-(dimethylamino) butanoate]
pKa [2]: 6.44 | potency (factor VII; higher potency than DLin-KC2-DMA): 10 fold

CCCCC/C=C\C/C=C\CCCCCCCCC(O)(CCCCCCCC/C=C\C/C=C\CCCCC)CCCCN(C)C [YSK012-C4]
pKa [2]: 8.0

#1 (LALFLLAAHASARQQ; listed as Arachis hypogaea)
Loading Capacity [1, 4]: 1.62 + 2.11

#2 (LRNLPQQCGLRAPQR; listed as Arachis hypogaea)
Loading Capacity [1, 4]: 3.22 + 1.96

#3 (MAKLTILVALALFLL; listed as Arachis hypogaea)
Loading Capacity [1, 4]: 1.31 + 1.72

#4 (SYGRDPYSPSQDPYS; listed as Arachis hypogaea)
Loading Capacity [1, 4]: 8.68 + 2.04

AH91-110: adalimumab HCDR3 peptide
recognition by T-cell lines (human T-cell lines): recognized by the majority of T-cell lines

AH96-110: adalimumab HCDR3 peptide (CAKVSYLSTASSLDY; listed as Homo sapiens)
recognition by T-cell lines (human T-cell lines): recognized by the majority of T-cell lines

Der p1 T-cell epitope (residues 111-139): major Der p1 T-cell epitope peptide (Hoyne et al.) (FGISNYCQIYPPNVNKIREALAQTHSAIA; UniProt P08176 209-237, looked up, fragment)
tolerance induction (C57BL/6J mice): capable of inducing tolerance

H4 aa 71-94: nucleosomal histone H4 peptide autoepitope
efficacy of autoepitope (lupus-prone mice): most effective autoepitope

LEPLGLVEEGAKTAP [AAV8-VP3 aa 126-140, reference compound]
SYFPEITHI score (I-Ek): 28 | Th1 response (T cell responses; C3H mice): strong H2k MHC II-restricted Th1 response

NSYVTPICIADKEYT [hF.IX aa 328-342, reference compound]
SYFPEITHI score (I-Ek): 24

QPARKRLNF [AAV8 capsid aa 166-174, reference compound]
predicted binding to the H2-Ld locus [3]: high-scoring

QVSVEIEWELQKENS [AAV2-VP3 475-489, reference compound]
SYFPEITHI score (I-Ek): 22 | Th2 response (T cell responses; C3H mice): strong Th2 response

SEQ ID NO: 1115 (QYGSVSTNL; listed as Arachis hypogaea)
BIM score predicted using the BIMAS program [3, 5]: 4147 | SYF score predicted using the SYFPEITHI program [3, 5]: 27 | Immunopositivity of predicted CTL epitope (T cell responses): QYGSVSTNL^c

SEQ ID NO: 1121 (LDRLMNPLI; listed as Arachis hypogaea)
SYF score predicted using the SYFPEITHI program [3, 6]: 20 | Immunopositivity of predicted CTL epitope (T cell responses): LDRLMNPLI^e

SEQ ID NO: 1122 (EEIRTTNPV; listed as Arachis hypogaea)
BIM score predicted using the BIMAS program [3, 6]: 100 | SYF score predicted using the SYFPEITHI program [3, 6]: 20 | Immunopositivity of predicted CTL epitope (T cell responses): EEIRTTNPY^e

SEQ ID NO: 1124 (TADVNTQGV; listed as Arachis hypogaea)
BIM score predicted using the BIMAS program [3, 7]: 3.4 | SYF score predicted using the SYFPEITHI program [3, 7]: 23 | Immunopositivity of predicted CTL epitope (T cell responses): TADVNTQGV^e

SEQ ID NO: 1133 (KYLGPFNGL; listed as Arachis hypogaea)
BIM score predicted using the BIMAS program [3, 5]: 6912 | SYF score predicted using the SYFPEITHI program [3, 5]: 27 | Immunopositivity of predicted CTL epitope (T cell responses): KYLGPFNGL^c

SEQ ID NO: 1134 (EYGIVADNLD; listed as Arachis hypogaea)
BIM score predicted using the BIMAS program [3, 5]: 2400 | SYF score predicted using the SYFPEITHI program [3, 5]: 23 | Immunopositivity of predicted CTL epitope (T cell responses): EYGIVADNL^d

SEQ ID NO: 1140 (LDRLMNPLI; listed as Arachis hypogaea)
BIM score predicted using the BIMAS program [3, 6]: 100 | SYF score predicted using the SYFPEITHI program [3, 6]: 20 | Immunopositivity of predicted CTL epitope (T cell responses): LDRLMNPLI^e

SEQ ID NO: 1141 (EEIKTTNPV; listed as Arachis hypogaea)
BIM score predicted using the BIMAS program [3, 6]: 100 | SYF score predicted using the SYFPEITHI program [3, 6]: 20 | Immunopositivity of predicted CTL epitope (T cell responses): EEIKTTNPV^e

SEQ ID NO: 1151 (KYNHDIALL; listed as Arachis hypogaea)
BIM score predicted using the BIMAS program [3, 5]: 3456 | SYF score predicted using the SYFPEITHI program [3, 5]: 24 | Immunopositivity of predicted CTL epitope (T cell responses): KYNHDIALL^c

SEQ ID NO: 1152 (GYVSGWGRVD; listed as Arachis hypogaea)
BIM score predicted using the BIMAS program [3, 5]: 1440 | SYF score predicted using the SYFPEITHI program [3, 5]: 22 | Immunopositivity of predicted CTL epitope (T cell responses): GYVSGWGRV^d

SEQ ID NO: 1160 (GSIVNEKWID; listed as Arachis hypogaea)
BIM score predicted using the BIMAS program [3, 7]: 936 | SYF score predicted using the SYFPEITHI program [3, 7]: 26 | Immunopositivity of predicted CTL epitope (T cell responses): GSIVNEKWI^d

SEQ ID NO: 1161 (LDHENANKI; listed as Arachis hypogaea)
BIM score predicted using the BIMAS program [3, 7]: 240 | SYF score predicted using the SYFPEITHI program [3, 7]: 23 | Immunopositivity of predicted CTL epitope (T cell responses): LDHENANKI^e

SEQ ID NO: 1170 (QVSVEIEWELQKENS; listed as Arachis hypogaea)
Score (antigenic score predicted) (I-Ek): 22 | Immunopositivity of MHC II peptide (T cell responses): QVSVEIEWELQKENS^b

SEQ ID NO: 1171 (GVLIFGKQSEKTNV; listed as Arachis hypogaea)
Score (antigenic score predicted) (I-Ek): 22

SEQ ID NO: 1172 (TSADNNNSEYSWTGA; listed as Arachis hypogaea)
Score (antigenic score predicted) (H2-A^k): 24

SEQ ID NO: 1173 (NGRDSLVNPGPAMAS; listed as Arachis hypogaea)
Score (antigenic score predicted) (H2-A^k): 24

SEQ ID NO: 1174 (LEPLGLVEEGAKTAP; listed as Arachis hypogaea)
Score (antigenic score predicted) (I-Ek): 28 | Immunopositivity of MHC II peptide (T cell responses): LEPLGLVEEGAKTAP^b

SEQ ID NO: 1175 (YKYLLGPFNGLDKGEP; listed as Arachis hypogaea)
Score (antigenic score predicted) (I-Ek): 28 | Immunopositivity of MHC II peptide (T cell responses): YKYLLGPINGUDKGEP^d

SEQ ID NO: 1176 (IVADNLQQQNTAPQI; listed as Arachis hypogaea)
Score (antigenic score predicted) (H2-A^k): 26

SEQ ID NO: 1178 (NSYVTPICIADEKEYT; listed as Arachis hypogaea)
Score (antigenic score predicted) (I-Ek): 24 | Immunopositivity of MHC II peptide (T cell responses): NSYVTPICIADKEYT^c

SEQ ID NO: 1179 (YTKVSRYVNWIEKEKT; listed as Arachis hypogaea)
Score (antigenic score predicted) (I-Ek): 22

SEQ ID NO: 1180 (NKWCSCTEGYRLAE; listed as Arachis hypogaea)
Score (antigenic score predicted) (I-Ek): 22

SEQ ID NO: 1181 (YNHDIALLELLEDEPLV; listed as Arachis hypogaea)
Score (antigenic score predicted) (H2-A^k): 24

SEQ ID NO: 1182 (CKDDINSYECWCPFG; listed as Arachis hypogaea)
Score (antigenic score predicted) (H2-A^k): 18

SEQ ID NO: 1183 (QYVDGDQCESNPCLN; listed as Arachis hypogaea)
Score (antigenic score predicted) (H2-A^k): 18

VPQYGYLTL [AAV2 capsid aa 170-178, reference compound]
predicted binding to the H2-Ld locus [3]: high-scoring

YTKVSRYVNWIKEKT [hF.IX aa 444-460, reference compound]
SYFPEITHI score (I-Ek): 22
